In paper PMC7576618 (British Journal of Clinical Pharmacology, 2020):
“And” between values parts separate entries of the source, which are not always exact repeats. Equal values may be shown once. “Also recorded” adds a separate entry of the source.

Experiments:
[1] = SAD study: plasma pharmacokinetics after single oral TS-134; format: in vivo, human; conditions: for AUC / Cmax / half-life / Tmax: both, human, plasma; for AUC: AUC0‐inf; for AUC / Cmax: mean (CV[%]); for Tmax: median
[2] = SAD study Part B: CSF pharmacokinetics of MGS0008 after 10 mg TS-134; format: in vivo, human; conditions: 10 mg TS‐134 under fed condition
[3] = MAD study: plasma pharmacokinetics after multiple oral dose titration of TS-134; format: in vivo, human; conditions: for AUC / half-life: both, human, plasma, oral, MAD Day 14, fed; for AUC: AUC0‐tau, mean (CV[%]); for half-life: t1/2, mean (CV[%])
[4] = SAD study: urinary excretion; format: in vivo, human; conditions: for CL renal: both, human, oral
[5] = MAD study: urinary excretion; format: in vivo, human; conditions: urine, MAD Day 14; for CL renal: both, human, oral, CLr, mean (CV[%])
mGlu3 receptor = conditions: read-out: in vitro EC50 for mGlu3 receptor; authors' assay system; cited from earlier work
[6] = rats; cited from earlier work
[7] = system: spontaneous locomotor activity in rats; assay: Spontaneous locomotor activity; conditions: doses similar to those which block psychostimulants‐induced hyperlocomotion
[8] = system: MK‐801‐induced social recognition deficits in rats; assay: MK-801-induced social recognition deficits; conditions: MGS0008 1, 3, 10 mg kg^-1 p.o., MK-801 0.2 mg kg^-1 i.p.
[9] = system: phencyclidine‐induced locomotor hyperactivity in rats; assay: Phencyclidine-induced locomotor hyperactivity; conditions: MGS0008 1, 3, 10 mg kg^-1 p.o., phencyclidine 3 mg kg^-1 s.c.
[10] = system: methamphetamine‐induced locomotor hyperactivity in rats; assay: Methamphetamine-induced locomotor hyperactivity; conditions: MGS0008 1, 3, 10 mg kg^-1 p.o., methamphetamine 1 mg kg^-1 s.c.
[11] = system: memantine‐increased 2‐deoxy‐D‐glucose uptake in the prefrontal cortex; assay: Memantine-induced 2-deoxy-D-glucose uptake in the prefrontal cortex; conditions: mice; MGS0008 0.3, 1, 3 mg kg^-1 s.c.; memantine 30 mg kg^-1 s.c.
[12] = oral, 5 mg, SAD Parts A and C, 5 mg fasted (n = 6)
[13] = oral, 10 mg, SAD Parts A and C, 10 mg fasted (n = 4)
[14] = oral, 10 mg, SAD Parts A and C, 10 mg fed (n = 3)
[15] = oral, 20 mg, SAD Parts A and C, 20 mg fasted (n = 3)
[16] = oral, 20 mg, SAD Parts A and C, 20 mg fed (n = 3)

Question: For N[C@]1(C(=O)O)[C@H]2[C@@H](C[C@@H]1F)[C@@H]2C(=O)O [MGS0008, (1S,2S,3S,5R,6S)‐2‐amino‐3‐fluorobicyclo[3.1.0]hexane‐2,6‐dicarboxylic acid], which “reduction of plasma AUC in the fed group (food effect)” value ([1]; SAD, 10 and 20 mg TS‐134) is on record?
Answer: ≤ 25%

Question: And the “reduction of plasma Cmax in the fed group (food effect)” value ([1]; SAD, 10 and 20 mg TS‐134)?
Answer: up to 57%

Question: And the AUC [1, 12]?
Answer: 278 ng·h/mL

Question: What about the Cmax [1, 12] of the same compound?
Answer: 25.9 ng/mL

Question: And the half-life ([1]; oral, 5 mg, t1/2, mean (CV[%]), SAD Parts A and C, 5 mg fasted (n = 6))?
Answer: 7.75 h

Question: And the Tmax [1, 12]?
Answer: 2 h

Question: What about the AUC [1, 13] of the same compound?
Answer: 535 ng·h/mL

Question: What about the AUC [1, 14] of the same compound?
Answer: 390 ng·h/mL

Question: What about the Cmax [1, 13] of the same compound?
Answer: 60.6 ng/mL

Question: And the Cmax [1, 14]?
Answer: 28.1 ng/mL

Question: What about the half-life ([1]; oral, 10 mg, t1/2, mean (CV[%]), SAD Part B, 10 mg fed (n = 7)) of the same compound?
Answer: 8.49 h

Question: What about the half-life ([1]; oral, 10 mg, t1/2, mean (CV[%]), SAD Parts A and C, 10 mg fasted (n = 4)) of the same compound?
Answer: 8.41 h

Question: And the half-life ([1]; oral, 10 mg, t1/2, mean (CV[%]), SAD Parts A and C, 10 mg fed (n = 3))?
Answer: 8.7 h

Question: And the Tmax [1, 13]?
Answer: 2 h

Question: And the Tmax [1, 14]?
Answer: 4 h

Question: And the AUC [1, 15]?
Answer: 840 ng·h/mL

Question: What about the AUC [1, 16] of the same compound?
Answer: 677 ng·h/mL

Question: What about the Cmax [1, 15] of the same compound?
Answer: 89.4 ng/mL

Question: What about the Cmax [1, 16] of the same compound?
Answer: 60.2 ng/mL

Question: And the half-life ([1]; oral, 20 mg, t1/2, mean (CV[%]), SAD Parts A and C, 20 mg fasted (n = 3))?
Answer: 6.96 h

Question: And the half-life ([1]; oral, 20 mg, t1/2, mean (CV[%]), SAD Parts A and C, 20 mg fed (n = 3))?
Answer: 6.91 h

Question: What about the Tmax [1, 15] of the same compound?
Answer: 3 h

Question: What about the Tmax [1, 16] of the same compound?
Answer: 2 h

Question: And the half-life ([1]; po, terminal half‐life (t1/2) in plasma, single and multiple oral administration of TS‐134 (SAD and MAD studies))?
Answer: ~10 h

Question: And the “plasma Cmax of MGS0008 relative to that of MGS0274” value ([1]; molar ratio, SAD and MAD studies)?
Answer: approximately 6 fold

Question: And the “plasma AUC of MGS0008 relative to that of MGS0274” value ([1]; molar ratio, all treatment groups with or without food)?
Answer: approximately 30 fold

Question: And the “mean CSF Cmax (molar)” value [2]?
Answer: 6.12 nM

Question: What about the “dose proportionality of steady‐state plasma Cmax and AUC” value ([3]; MAD, 5–80 mg) of the same compound?
Answer: increased dose proportionally; also recorded: dose proportional increases

Question: And the “time for plasma trough concentrations to reach steady state” value ([3]; after initiating multiple doses of target dose levels, data not shown)?
Answer: ≤ 2 days

Question: And the AUC ([3]; 5 mg, 5 mg (n = 8))?
Answer: 233 ng·h/mL

Question: And the half-life ([3]; 5 mg, 5 mg (n = 8))?
Answer: 9.68 h

Question: And the AUC ([3]; 10 mg, 10 mg (n = 8))?
Answer: 475 ng·h/mL

Question: And the half-life ([3]; 10 mg, 10 mg (n = 8))?
Answer: 10.9 h

Question: And the AUC ([3]; 20 mg, 20 mg (n = 8))?
Answer: 817 ng·h/mL

Question: And the half-life ([3]; 20 mg, 20 mg (n = 8))?
Answer: 10.4 h

Question: What about the AUC ([3]; 40 mg, 40 mg (n = 8)) of the same compound?
Answer: 1640 ng·h/mL

Question: And the half-life ([3]; 40 mg, 40 mg (n = 8))?
Answer: 10.3 h

Question: What about the AUC ([3]; 60 mg, 60 mg (n = 8)) of the same compound?
Answer: 3100 ng·h/mL

Question: What about the half-life ([3]; 60 mg, 60 mg (n = 8)) of the same compound?
Answer: 9.43 h

Question: What about the “urinary excretion rate, % of the administered doses” value ([4]; SAD and MAD studies, dose range 5–80 mg) of the same compound?
Answer: 29.38 to 69.01% and 29.38–69.01%

Question: What about the CL renal ([4]; urine and plasma, renal clearance, range, SAD and MAD studies) of the same compound?
Answer: 70.6 to 103 mL/min

Question: What about the CL renal ([4]; urine, 5 mg, CLr, mean (CV[%]), SAD Parts A and C, 5 mg fasted (n = 6)) of the same compound?
Answer: 101 mL/min

Question: And the CL renal ([4]; urine, 10 mg, CLr, mean (CV[%]), SAD Parts A and C, 10 mg fasted (n = 4))?
Answer: 89.8 mL/min

Question: And the CL renal ([4]; urine, 10 mg, CLr, mean (CV[%]), SAD Parts A and C, 10 mg fed (n = 3))?
Answer: 103 mL/min

Question: And the CL renal ([4]; urine, 20 mg, CLr, mean (CV[%]), SAD Parts A and C, 20 mg fasted (n = 3))?
Answer: 73.9 mL/min

Question: What about the CL renal ([4]; urine, 20 mg, CLr, mean (CV[%]), SAD Parts A and C, 20 mg fed (n = 3)) of the same compound?
Answer: 70.6 mL/min

Question: And the “Fe (0–48), mean (CV[%])” value ([4]; urine, SAD Part B, 10 mg fed (n = 7))?
Answer: 55.77 (15.99) %

Question: What about the “Fe (0–48), mean (CV[%])” value ([4]; urine, SAD Parts A and C, 5 mg fasted (n = 6)) of the same compound?
Answer: 69.01 (10.23) %

Question: And the “Fe (0–48), mean (CV[%])” value ([4]; urine, SAD Parts A and C, 10 mg fasted (n = 4))?
Answer: 60.61 (36.10) %

Question: And the “Fe (0–48), mean (CV[%])” value ([4]; urine, SAD Parts A and C, 10 mg fed (n = 3))?
Answer: 49.65 (38.35) %

Question: What about the “Fe (0–48), mean (CV[%])” value ([4]; urine, SAD Parts A and C, 20 mg fasted (n = 3)) of the same compound?
Answer: 38.55 (65.52) %

Question: And the “Fe (0–48), mean (CV[%])” value ([4]; urine, SAD Parts A and C, 20 mg fed (n = 3))?
Answer: 29.38 (52.53) %

Question: What about the CL renal ([5]; 5 mg, 5 mg (n = 8)) of the same compound?
Answer: 85.2 mL/min

Question: What about the CL renal ([5]; 10 mg, 10 mg (n = 8)) of the same compound?
Answer: 88.2 mL/min

Question: And the CL renal ([5]; 20 mg, 20 mg (n = 8))?
Answer: 103 mL/min

Question: What about the CL renal ([5]; 40 mg, 40 mg (n = 8)) of the same compound?
Answer: 93.3 mL/min

Question: And the CL renal ([5]; 60 mg, 60 mg (n = 8))?
Answer: 78.7 mL/min

Question: What about the “Fe (0–24), mean (CV[%])” value ([5]; 5 mg (n = 8)) of the same compound?
Answer: 48.03 (36.10) %

Question: And the “Fe (0–24), mean (CV[%])” value ([5]; 10 mg (n = 8))?
Answer: 51.79 (24.95) %

Question: What about the “Fe (0–24), mean (CV[%])” value ([5]; 20 mg (n = 8)) of the same compound?
Answer: 50.42 (20.58) %

Question: And the “Fe (0–24), mean (CV[%])” value ([5]; 40 mg (n = 8))?
Answer: 48.06 (13.48) %

Question: What about the “Fe (0–24), mean (CV[%])” value ([5]; 60 mg (n = 8)) of the same compound?
Answer: 50.48 (24.14) %

Question: What about the “Fe (0–24), mean (CV[%])” value ([5]; 80 mg Cohort 5 (n = 7)) of the same compound?
Answer: 43.69 (36.76) %

Question: And the “Fe (0–24), mean (CV[%])” value ([5]; 80 mg Cohort 6 (n = 6))?
Answer: 37.21 (35.47) %

Question: What about the EC50 (mGlu3 receptor) of the same compound?
Answer: 45.4 nM

Question: What about the “CSF‐to‐plasma AUC ratio” value [6] of the same compound?
Answer: 2.8%

Question: What about the “presence in the cerebrospinal fluid (CSF) after oral administration of MGS0008” value [6] of the same compound?
Answer: detected

Question: What about the “effect on spontaneous locomotor activity” value [7] of the same compound?
Answer: significantly reduced

Question: What about the “effect on MK‐801‐induced impaired social memory” value [8] of the same compound?
Answer: significantly reversed

Question: And the “effect on phencyclidine‐induced locomotor hyperactivity” value [9]?
Answer: significantly attenuated

Question: What about the “effect on methamphetamine‐induced locomotor hyperactivity” value [10] of the same compound?
Answer: significantly attenuated

Question: What about the “effect on memantine‐increased 2‐deoxy‐D‐glucose uptake (2‐DG6P) in the prefrontal cortex” value [11] of the same compound?
Answer: attenuated
